Measured values published in US11377441B2, “Covalent inhibitors of KRAS” (Araxes Pharma LLC, priority 2017, dated 2022).

The compounds below were run against T1, KRAS G12C 1-169, his-tagged protein, GDP-loaded (Homo sapiens, UniProt P01116, G12C) (assay: Biochemical assay: covalent modification of KRAS G12C measured by mass spectrometry (RapidFire/TOF or Q-Exactive)). Details: covalent binding to (modification of) KRAS G12C after a ten minute incubation period.
T1 construct: KRAS G12C 1-169, his-tagged protein, GDP-loaded
Type: binding
Procedure, shortened: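 GDP-loaded KRAS G12C 1-169 (his-tagged) at 2 μM or 0.5 μM in 20 mM Hepes, 150 mM NaCl, 1 mM MgCl2, incubated with compound at 100, 30 or 10 μM at room temperature for 10 min, 30 min, 2 h or 24 h, then quenched with formic acid. Intact-protein LC-MS, deconvolved; percent modification from modified versus unmodified protein.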

| SMILES | Binding % |
| --- | --- |
| C=CC(=O)N1C[C@H](C)N(c2nc(N3CC(N(C)C)C3)nc3c(F)c(-c4c(C)ccc5onc(N)c45)c(Cl)cc23)C[C@H]1C [Compound 50, 1-((2R,5S)-4-(7-(3-amino-5-methylbenzo[d]isoxazol-4-yl)-6-chloro-2-(3-(dimethylamino)azetidin-1-yl)-8-fluoroquinazolin-4-yl)-2,5-dimethylpiperazin-1-yl)prop-2-en-1-one] | +++ (+++ indicates binding activity greater than 80%) |
| C=CC(=O)N1C[C@H](C)N(c2nc(N3CC(N(C)C)C3)nc3c(F)c(-c4c(C)ccc5nc(C)[nH]c45)c(Cl)cc23)C[C@H]1C [Compound 52, 1-((2R,5S)-4-(6-chloro-7-(2,6-dimethyl-1H-benzo[d]imidazol-7-yl)-2-(3-(dimethylamino)azetidin-1-yl)-8-fluoroquinazolin-4-yl)-2,5-dimethylpiperazin-1-yl)prop-2-en-1-one] | ++ (++ indicates binding activity from 50 to 80%) |
| C=CC(=O)N1C[C@H](C)N(c2nc(N3CC(N(C)C)C3)nc3c(F)c(-c4c(C)cnc5[nH]ncc45)c(Cl)cc23)C[C@H]1C [Compound 56, 1-((2R,5S)-4-(6-chloro-2-(3-(dimethylamino)azetidin-1-yl)-8-fluoro-7-(5-methyl-1H-pyrazolo[3,4-b]pyridin-4-yl)quinazolin-4-yl)-2,5-dimethylpiperazin-1-yl)prop-2-en-1-one] | + (+ indicates binding activity greater than 0% and up to 50%) |
| C=CC(=O)N1C[C@H](C)N(c2nc(N3CC(N(C)C)C3)nc3c(F)c(-c4c(C)ccc5[nH]nc(C6CC6)c45)c(Cl)cc23)C[C@H]1C [Compound 57, 1-((2R,5S)-4-(6-chloro-7-(3-cyclopropyl-5-methyl-1H-indazol-4-yl)-2-(3-(dimethylamino)azetidin-1-yl)-8-fluoroquinazolin-4-yl)-2,5-dimethylpiperazin-1-yl)prop-2-en-1-one] | +++ (+++ indicates binding activity greater than 80%) |
| C=CC(=O)N1C[C@H](C)N(c2nc(NCCC(=O)N3CCCC3)nc3c(F)c(-c4c(C)ccc5[nH]nc(N)c45)c(Cl)cc23)C[C@H]1C [Compound 60, 1-((2R,5S)-4-(7-(3-amino-5-methyl-1H-indazol-4-yl)-6-chloro-8-fluoro-2-(3-oxo-3-(pyrrolidin-1-yl)propylamino)quina-zolin-4-yl)-2,5-dimethylpiperazin-1-yl)prop-2-en-1-one] | +++ (+++ indicates binding activity greater than 80%) |
| C=CC(=O)N1C[C@H](C)N(c2nc(N3CC(N(C)C)C3)nc3c(F)c(-c4c(C)ccc5[nH]nc(CC)c45)c(Cl)cc23)C[C@H]1C [Compound 61, 1-((2R,5S)-4-(6-chloro-2-(3-(dimethylamino)azetidin-1-yl)-7-(3-ethyl-5-methyl-1H-indazol-4-yl)-8-fluoroquinazolin-4-yl)-2,5-dimethylpiperazin-1-yl)prop-2-en-1-one] | +++ (+++ indicates binding activity greater than 80%) |
| C=CC(=O)N1C[C@H](C)N(c2nc(NCCC(=O)N(C)C)nc3c(F)c(-c4c(C)ccc5[nH]nc(N)c45)c(Cl)cc23)C[C@H]1C [Compound 62, 3-(4-((2S,5R)-4-acryloyl-2,5-dimethylpiperazin-1-yl)-7-(3-amino-5-methyl-1H-indazol-4-yl)-6-chloro-8-fluoroquinazolin-2-ylamino)-N,N-dimethylpropanamide] | +++ (+++ indicates binding activity greater than 80%) |
| C=CC(=O)N1C[C@H](C)N(c2nc(NCCCN(C)C)nc3c(F)c(-c4c(C)ccc5[nH]nc(N)c45)c(Cl)cc23)C[C@H]1C [Compound 63, 1-((2R,5S)-4-(7-(3-amino-5-methyl-1H-indazol-4-yl)-6-chloro-2-(3-(dimethylamino)propyl-amino)-8-fluoroquinazolin-4-yl)-2,5-dimethylpiperazin-1-yl)prop-2-en-1-one] | ++ (++ indicates binding activity from 50 to 80%) |
| C=CC(=O)N1C[C@H](C)N(c2nc(NCCC(=O)N(C)C)nc3c(F)c(-c4c(C)ccc5onc(N)c45)c(Cl)cc23)C[C@H]1C [Compound 64, 3-(4-((2S,5R)-4-acryloyl-2,5-dimethylpiperazin-1-yl)-7-(3-amino-5-methylbenzo[d]isoxa-zol-4-yl)-6-chloro-8-fluoroquinazolin-2-ylamino)-N,N-dimethylpropanamide] | ++ (++ indicates binding activity from 50 to 80%) |
| C=CC(=O)N1C[C@H](C)N(c2nc(N3CC(N(C)C)C3)nc3c(F)c(-c4c(C)ccc5c(O)n[nH]c45)c(Cl)cc23)C[C@H]1C [Compound 65, 1-((2R,5S)-4-(6-chloro-2-(3-(dimethylamino)azetidin-1-yl)-8-fluoro-7-(3-hydroxy-6-methyl-1H-indazol-7-yl)quinazolin-4-yl)-2,5-dimethylpiperazin-1-yl)prop-2-en-1-one] | + (+ indicates binding activity greater than 0% and up to 50%) |
| C=CC(=O)N1C[C@H](C)N(c2nc(Nc3cnn(C)c3)nc3c(F)c(-c4c(C)ccc5[nH]nc(N)c45)c(Cl)cc23)C[C@H]1C [Compound 68, 1-((2R,5S)-4-(7-(3-amino-5-methyl-1H-indazol-4-yl)-6-chloro-8-fluoro-2-(1-methyl-1H-pyrazol-4-ylamino)quinazolin-4-yl)-2,5-dimethylpiperazin-1-yl)prop-2-en-1-one] | +++ (+++ indicates binding activity greater than 80%) |
| C=CC(=O)N1C[C@H](C)N(c2nc(OCCCN(CC)CC)nc3c(F)c(-c4c(C)ccc5[nH]nc(N)c45)c(Cl)cc23)C[C@H]1C [Compound 69, 1-((2R,5S)-4-(7-(3-amino-5-methyl-1H-indazol-4-yl)-6-chloro-2-(3-(diethylamino)propoxy)-8-fluoroquinazolin-4-yl)-2,5-dimethylpiperazin-1-yl)prop-2-en-1-one] | +++ (+++ indicates binding activity greater than 80%) |
| C=CC(=O)N1C[C@H](C)N(c2nc(OCCN3CCC(F)CC3)nc3c(F)c(-c4c(C)ccc5[nH]nc(N)c45)c(Cl)cc23)C[C@H]1C [Compound 70, 1-((2R,5S)-4-(7-(3-amino-5-methyl-1H-indazol-4-yl)-6-chloro-8-fluoro-2-(2-(4-fluoropiperidin-1-yl)ethoxy)quinazolin-4-yl)-2,5-dimethylpiperazin-1-yl)prop-2-en-1-one] | +++ (+++ indicates binding activity greater than 80%) |
| C=CC(=O)N1C[C@H](C)N(c2nc(N3CC(N(C)C)C3)nc3c(F)c(-c4c(C)ccc5c(N)noc45)c(Cl)cc23)C[C@H]1C [Compound 71, 1-((2R,5S)-4-(7-(3-amino-6-methylbenzo[d]isoxazol-7-yl)-6-chloro-2-(3-(dimethylamino)azetidin-1-yl)-8-fluoroquinazolin-4-yl)-2,5-dimethylpiperazin-1-yl)prop-2-en-1-one] | + (+ indicates binding activity greater than 0% and up to 50%) |
| C=CC(=O)N1C[C@H](C)N(c2nc(NCCCN3CCOCC3)nc3c(F)c(-c4c(C)ccc5[nH]nc(N)c45)c(Cl)cc23)C[C@H]1C [Compound 72, 1-((2R,5S)-4-(7-(3-amino-5-methyl-1H-indazol-4-yl)-6-chloro-8-fluoro-2-(3-morpholinopropylami-no)quinazolin-4-yl)-2,5-dimethylpiperazin-1-yl)prop-2-en-1-one] | +++ (+++ indicates binding activity greater than 80%) |
| C=CC(=O)N1C[C@H](C)N(c2nc(NCCCN(C)C)nc3c(F)c(-c4c(C)ccc5onc(N)c45)c(Cl)cc23)C[C@H]1C [Compound 73, 1-((2R,5S)-4-(7-(3-amino-5-methylbenzo[d]isoxa-zol-4-yl)-6-chloro-2-(3-(dimethylamino)propyl-amino)-8-fluoroquinazolin-4-yl)-2,5-dimethylpiperazin-1-yl)prop-2-en-1-one] | + (+ indicates binding activity greater than 0% and up to 50%) |
| C=CC(=O)N1C[C@H](C)N(c2nc(Nc3cnn(C)c3)nc3c(F)c(-c4c(C)ccc5onc(N)c45)c(Cl)cc23)C[C@H]1C [Compound 74, 1-((2R,5S)-4-(7-(3-amino-5-methylbenzo[d]osoxa-zol-4-yl)-6-chloro-8-fluoro-2-(1-methyl-1H-pyrazol-4-ylamino)quinazolin-4-yl)-2,5-dimethylpiperazin-1-yl)prop-2-en-1-one] | + (+ indicates binding activity greater than 0% and up to 50%) |
| C=CC(=O)N1C[C@H](C)N(c2nc(N3CC(N(C)C)C3)nc3c(F)c(-c4cncc5[nH]ncc45)c(Cl)cc23)C[C@H]1C [Compound 77, 1-((2R,5S)-4-(6-chloro-2-(3-(dimethylamino)azetidin-1-yl)-8-fluoro-7-(1H-pyrazolo[3,4-c]pyridin-4-yl)quinazolin-4-yl)-2,5-dimethylpiperazin-1-yl)prop-2-en-1-one] | + (+ indicates binding activity greater than 0% and up to 50%) |
| C=CC(=O)N1C[C@H](C)N(c2nc(OCCN(CC)CC)nc3c(F)c(-c4c(C)ccc5[nH]nc(N)c45)c(Cl)cc23)C[C@H]1C [Compound 78, 1-((2R,5S)-4-(7-(3-amino-5-methyl-1H-indazol-4-yl)-6-chloro-2-(2-(diethylamino)ethoxy)-8-fluoroquinazolin-4-yl)-2,5-dimethylpiperazin-1-yl)prop-2-en-1-one] | +++ (+++ indicates binding activity greater than 80%) |
| C=CC(=O)N1C[C@H](C)N(c2nc(NCCN3CCOCC3)nc3c(F)c(-c4c(C)ccc5[nH]nc(N)c45)c(Cl)cc23)C[C@H]1C [Compound 79, 1-((2R,5S)-4-(7-(3-amino-5-methyl-1H-indazol-4-yl)-6-chloro-8-fluoro-2-(2-morpholinoethylamino)quinazolin-4-yl)-2,5-dimethylpiperazin-1-yl)prop-2-en-1-one] | +++ (+++ indicates binding activity greater than 80%) |
